Data reported in patent publication US9145411B2, “Substituted amino-pyrimidine derivatives” (Asana Biosciences, LLC, priority 2012, dated 2015).

Assays:
PC3 cells = experiment: XTT assay for cell viability, PC3 cells; type: cell-based; conditions: Homo sapiens, PC-3; PC3 cell proliferation, 96 hours
Method in brief: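 Log-phase PC3 cells (1000/well) were seeded for 24 h, then exposed to serially diluted compounds (DMSO dilutions) for 96 h. Viability was measured by XTT dye conversion at 37 °C, with absorbance read at 465 nm. EC50 was obtained from a sigmoidal dose-response fit.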

PI3Kα mutation H1047R = PI3Kα mutation H1047R (Homo sapiens, UniProt P42336, H1047R); experiment: PI3 Kinase TR-FRET assay, PI3Kα mutation H1047R; type: biochemical; conditions: read-out: inhibition of PI3Kα mutation H1047R, IC50
Method: (§1) The ability of compounds of the invention to inhibit PI3K activity was determined in a homogeneous TR-FRET assay using a PI3K assay kit (Millipore, USA; cat #33-016) according to manufacturer's instructions. PI3-Kinases (isoforms α, β, γ and δ) catalyze the phosphorylation of phosphatidylinositol, PIP2 to PIP3 in the presence of ATP and Mg^2+. The PIP3 product is detected by displacement of biotin-PIP3 from an energy transfer complex consisting of Europium labeled anti-GST monoclonal antibody, a GST-tagged PH domain, biotinylated PIP3 and Streptavidin-APC. Excitation of Europium in the complex results in an energy transfer to the APC and a fluorescence emission at 665 nm. The PIP3 product displaces biotin-PIP3 from the complex resulting in a loss of energy transfer and thus a decrease in signal.
(§2) To test for the ability of compounds to inhibit the activity of PI3Kα (wild-type), exemplary compounds of formula (I) were dissolved in DMSO and directly distributed into 384-well plates at a volume of 0.5 μL. 14.5 μL of P110/P85α/PIP2 mixture in buffer (obtained from the Millipore kit) containing MgCl2 (40 mM) and DTT (5 mM) was added to compound wells and incubated for 60 minutes at room temperature. P110/P85α was expressed in SF9 insect cells and purified nickel column extraction. Five ng of wild-type P110/P85α was used in the assay. The kinase reaction was started by the addition of ATP. The assay concentrations of both PIP2 and ATP were 10 μM. The reaction mixture was incubated for 30 minutes at room temperature and was terminated by the addition of stop mix and detection mix. Fluorescence was measured at 615 and 665 nm upon excitation at 340 nm in a Victor™ V5 fluorometer (Perkin Elmer, USA). The fluorescence emission ratio at 665 to 615 nm, proportional to the kinase activity, was plotted against the compound concentration to generate dose-response curves and IC50 values were determined using GraphPad Prism® 5 software.
(§3) The activity of PI3Kα mutations H1047R and E545K were assayed in a similar manner to the assay protocol described above for PI3Kα (wild type). The compounds of formula (I) caused inhibition of PI3Kα mutations H1047R (a mutation associated with breast and gastric cancers) and E545K (a mutation associated with colorectal tumors, glioblastomas, gastric cancers, breast cancers, and lung cancers). For example, each of the compounds of Example 3, 7, 21, 47, 48 and 49 caused inhibition of each of the PI3Kα mutations H1047R and E545K with IC50 values<50 nM.

PI3Kα mutation E545K = PI3Kα mutation E545K (Homo sapiens, UniProt P42336, E545K); experiment: PI3 Kinase TR-FRET assay, PI3Kα mutation E545K; type: biochemical; conditions: read-out: inhibition of PI3Kα mutation E545K, IC50
Method: as §1, §2, §3

PI3Kα (wild-type) = target: T1, PI3Kα (wild-type) (Homo sapiens, UniProt P42336); experiment: PI3 Kinase TR-FRET assay, PI3Kα (wild-type); type: biochemical; conditions: wild-type P110/P85α, 10 μM ATP
T1 construct: made in house; host or cells: SF9 insect cells
Method in brief: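 Sf9-expressed, Ni-purified p110/p85α (5 ng) with PIP2 was preincubated with compound for 60 min at room temperature in buffer with 40 mM MgCl2 and 5 mM DTT. The reaction ran 30 min at room temperature with 10 μM PIP2 and 10 μM ATP. The TR-FRET 665/615 nm ratio was used to derive IC50 from dose-response curves.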

mTOR kinase = target: T2, mTOR kinase (Homo sapiens, UniProt P42345); experiment: mTOR kinase TR-FRET assay; type: biochemical; conditions: 20 μM ATP
T2 construct: purchased Millipore, USA
Method in brief: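 Test compounds were pre-incubated 60 min with mTOR (5 ng), then ULight-p70 S6K (Thr389) peptide (50 nM) and ATP (20 μM) were added in HEPES 50 mM pH 7.5, EGTA, MnCl2 3 mM. After 60 min at room temperature, EDTA stop and Eu-anti-phospho antibody TR-FRET (665/615 nm) gave IC50 from sigmoidal variable-slope fits.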

PI3 kinase isoform δ = PI3 kinase isoform δ (Homo sapiens, UniProt O00329); experiment: PI3 Kinase TR-FRET assay, isoform δ; type: biochemical; conditions: read-out: inhibition of PI3 kinase isoform δ, IC50
Method: as §1, §2
(§4) The activity of PI3 kinase isoforms β, γ and δ were assayed in a similar manner to the assay protocol described above for PI3Kα, by substituting the appropriate p110/p85 isoform for the p110α/p85α. Compounds of formula (I) caused inhibition of PI3 kinase isoforms β, γ and δ as determined by these assays. For example, the compounds of Examples 3 and 21 each caused inhibition of PI3 kinase isoform β with IC50 values<500 nM. The compounds of Examples 3, 7, 21, 47, 48 and 49 each caused inhibition of PI3 kinase isoform γ with IC50 values<500 nM. The compounds of Example 3, 7, 47, 48, and 49 caused inhibition of PI3 kinase isoform δ with IC50 values<1 μM.

pAkt(T308) = experiment: In-cell Western assay, pAkt(T308), PC3 cells; type: cell-based; conditions: Homo sapiens, PC-3, 2 hours incubation
Method: (§5) Cells from human prostate cancer cell line PC3 (American Type Culture Collection (ATCC), Manassas, Va. 20108 USA) were seeded at an optimal density of 22,000 cell/well in 96-well plates containing Ham's F12K medium (90 μL) and incubated overnight. The compound dilutions were carried out in 100% DMSO followed by a dilution in the medium. Test compounds were added in serial dilutions to the wells and incubated for 2 hours. The cells were washed and fixed with 4% paraformaldehyde. After incubation at room temperature for 1 hour in the dark, blocking was done for 2 hours at room temperature. Primary antibodies for pAkt(S473) ([…] phosphorylated at serine 473), pAkt(T308) (Akt phosphorylated at threonine 308) and for pS6RP (S235/236) (phosphorylated at serine 235/236) (commercially available from Cell Signaling Technology®, whose protocol was followed for the in-cell western assay, were diluted to the required concentration and added to the corresponding wells followed by overnight incubation at 4° C. Eu-labeled rabbit (PE) (Perkin-Elmer USA catalog #AD0106) secondary antibody was added and incubated for 2 hours at room temperature. Delfia® enhancement solution (cat #1244-105, Perkin Elmer USA) was subsequently added to the plate before taking the reading at 615 nm with excitation wavelength of 340 nm, after which 0.5 μg/mL of Hoechst® 33258 dye (Catalog #86140-5, Sigma) was added to the plate and fluorescence emission was read at 460 nm with 355 nm excitation, to evaluate the correction factor. IC50 values were calculated using a sigmoidal dose-response curve fit in GraphPad Prism® v5 software.

PI3 kinase isoform γ = PI3 kinase isoform γ (Homo sapiens, UniProt P48736); experiment: PI3 Kinase TR-FRET assay, isoform γ; type: biochemical; conditions: read-out: inhibition of PI3 kinase isoform γ, IC50
Method: as §1, §2, §4

pS6RP (S235/236) = experiment: In-cell Western assay, pS6RP (S235/236), PC3 cells; type: cell-based; conditions: Homo sapiens, PC-3, 2 hours incubation
Method: as §5

pAkt(S473) = experiment: In-cell Western assay, pAkt(S473), PC3 cells; type: cell-based; conditions: Homo sapiens, PC-3, 2 hours incubation
Method: as §5

U87MG tumor cells = experiment: In vivo efficacy study (tumor growth suppression), U87MG xenograft; conditions: U87MG xenograft mice, after 12 to 14 days of dosing, 50 mg/kg qd po
PI3 kinase isoform β = PI3 kinase isoform β (Homo sapiens, UniProt P42338); experiment: PI3 Kinase TR-FRET assay, isoform β; type: biochemical; conditions: read-out: inhibition of PI3 kinase isoform β, IC50
Method: as §1
To test for the ability of compounds to inhibit the activity of PI3Kα (wild-type), exemplary compounds of formula (I) were dissolved in DMSO and directly distributed into 384-well plates at a volume of 0.5 μL. […] Fluorescence was measured at 615 and 665 nm upon excitation at 340 nm in a Victor™ V5 fluorometer (Perkin Elmer, USA). The fluorescence emission ratio at 665 to 615 nm, proportional to the kinase activity, was plotted against the compound concentration to generate dose-response curves and IC50 values were determined using GraphPad Prism® 5 software. […]

PI3Kα mutation E545K, sequence (P42336 whole entry E545K): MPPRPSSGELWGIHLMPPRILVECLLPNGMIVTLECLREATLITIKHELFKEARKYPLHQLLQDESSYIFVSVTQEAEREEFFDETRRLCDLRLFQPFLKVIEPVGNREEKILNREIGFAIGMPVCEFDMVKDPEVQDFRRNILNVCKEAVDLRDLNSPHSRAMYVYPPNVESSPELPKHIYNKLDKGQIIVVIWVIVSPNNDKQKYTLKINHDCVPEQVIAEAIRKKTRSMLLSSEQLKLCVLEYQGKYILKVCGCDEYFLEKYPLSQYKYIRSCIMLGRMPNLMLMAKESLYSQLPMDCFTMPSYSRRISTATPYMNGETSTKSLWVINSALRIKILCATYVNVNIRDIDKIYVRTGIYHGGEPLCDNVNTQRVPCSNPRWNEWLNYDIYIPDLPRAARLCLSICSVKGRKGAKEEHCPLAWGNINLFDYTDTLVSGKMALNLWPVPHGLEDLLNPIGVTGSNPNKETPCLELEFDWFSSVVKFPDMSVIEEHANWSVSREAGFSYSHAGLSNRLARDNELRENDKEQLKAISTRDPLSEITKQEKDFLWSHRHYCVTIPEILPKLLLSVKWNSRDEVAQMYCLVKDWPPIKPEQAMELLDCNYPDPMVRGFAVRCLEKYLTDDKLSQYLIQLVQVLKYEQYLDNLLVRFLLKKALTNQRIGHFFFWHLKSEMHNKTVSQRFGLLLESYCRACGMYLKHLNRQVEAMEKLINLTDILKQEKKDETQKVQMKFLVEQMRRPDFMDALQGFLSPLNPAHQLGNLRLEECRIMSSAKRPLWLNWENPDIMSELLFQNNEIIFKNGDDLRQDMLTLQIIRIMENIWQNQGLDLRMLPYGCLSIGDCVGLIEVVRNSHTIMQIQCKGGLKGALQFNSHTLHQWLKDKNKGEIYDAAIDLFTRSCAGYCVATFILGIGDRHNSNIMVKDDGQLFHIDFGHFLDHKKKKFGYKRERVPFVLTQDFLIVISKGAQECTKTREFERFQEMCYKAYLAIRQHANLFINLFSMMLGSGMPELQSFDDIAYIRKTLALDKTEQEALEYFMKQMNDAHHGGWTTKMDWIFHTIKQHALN
PI3Kα mutation E545K, sequence (P27986 whole entry partner): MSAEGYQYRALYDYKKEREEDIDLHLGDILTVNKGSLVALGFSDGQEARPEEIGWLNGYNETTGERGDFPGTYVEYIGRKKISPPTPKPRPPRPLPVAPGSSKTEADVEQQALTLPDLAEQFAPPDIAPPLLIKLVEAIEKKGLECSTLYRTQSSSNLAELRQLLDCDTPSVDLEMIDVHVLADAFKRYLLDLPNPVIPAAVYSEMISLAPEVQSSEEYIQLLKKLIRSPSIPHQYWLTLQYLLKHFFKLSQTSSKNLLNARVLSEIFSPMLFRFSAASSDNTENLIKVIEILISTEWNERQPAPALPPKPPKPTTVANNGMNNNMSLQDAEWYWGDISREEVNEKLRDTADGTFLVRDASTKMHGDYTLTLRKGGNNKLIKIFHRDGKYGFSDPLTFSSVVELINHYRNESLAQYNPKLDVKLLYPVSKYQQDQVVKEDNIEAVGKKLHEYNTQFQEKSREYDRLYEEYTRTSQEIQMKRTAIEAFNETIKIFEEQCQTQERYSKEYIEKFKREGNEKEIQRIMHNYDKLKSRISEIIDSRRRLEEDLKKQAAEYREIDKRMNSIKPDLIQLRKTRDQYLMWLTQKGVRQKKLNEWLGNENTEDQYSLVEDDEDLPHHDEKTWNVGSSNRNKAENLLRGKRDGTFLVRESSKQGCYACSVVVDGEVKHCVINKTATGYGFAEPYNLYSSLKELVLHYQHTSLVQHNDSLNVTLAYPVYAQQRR
T2 sequence (P42345 1362-2549 limits assumed): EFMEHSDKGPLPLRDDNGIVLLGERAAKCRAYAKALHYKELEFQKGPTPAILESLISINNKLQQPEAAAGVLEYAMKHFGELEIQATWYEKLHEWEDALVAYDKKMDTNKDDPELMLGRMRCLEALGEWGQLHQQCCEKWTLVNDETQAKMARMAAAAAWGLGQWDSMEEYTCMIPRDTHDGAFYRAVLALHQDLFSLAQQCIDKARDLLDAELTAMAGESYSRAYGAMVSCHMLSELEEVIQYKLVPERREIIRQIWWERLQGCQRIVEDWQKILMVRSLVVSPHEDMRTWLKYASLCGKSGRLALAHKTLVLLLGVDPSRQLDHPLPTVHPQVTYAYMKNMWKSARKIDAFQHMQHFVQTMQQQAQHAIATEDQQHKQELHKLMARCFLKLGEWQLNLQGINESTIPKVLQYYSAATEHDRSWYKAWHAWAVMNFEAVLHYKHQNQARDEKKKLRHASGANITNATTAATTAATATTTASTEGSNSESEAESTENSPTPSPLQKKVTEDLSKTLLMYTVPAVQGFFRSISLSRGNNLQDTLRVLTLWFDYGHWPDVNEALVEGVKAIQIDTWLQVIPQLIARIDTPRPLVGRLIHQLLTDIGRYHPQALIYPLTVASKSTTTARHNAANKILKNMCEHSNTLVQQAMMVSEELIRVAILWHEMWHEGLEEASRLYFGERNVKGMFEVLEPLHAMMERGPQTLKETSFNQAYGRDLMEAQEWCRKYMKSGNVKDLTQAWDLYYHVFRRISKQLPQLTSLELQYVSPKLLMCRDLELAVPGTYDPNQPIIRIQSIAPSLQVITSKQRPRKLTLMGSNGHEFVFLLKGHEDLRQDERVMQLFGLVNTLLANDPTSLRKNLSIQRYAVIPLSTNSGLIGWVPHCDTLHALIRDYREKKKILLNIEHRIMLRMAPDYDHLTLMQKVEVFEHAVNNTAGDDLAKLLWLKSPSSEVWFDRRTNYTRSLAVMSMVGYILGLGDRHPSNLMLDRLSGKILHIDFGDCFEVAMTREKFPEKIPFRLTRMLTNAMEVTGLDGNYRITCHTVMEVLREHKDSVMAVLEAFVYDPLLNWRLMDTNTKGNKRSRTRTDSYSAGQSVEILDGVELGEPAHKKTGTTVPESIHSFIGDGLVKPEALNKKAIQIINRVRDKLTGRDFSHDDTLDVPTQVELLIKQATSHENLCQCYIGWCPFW
T1 sequence (P42336 whole entry, species assumed): as the sequence (P42336 whole entry E545K) above, with K545E counted along it
T1 sequence (P27986 whole entry partner, species assumed): as the sequence (P27986 whole entry partner) above
PI3 kinase isoform δ, sequence (O00329 whole entry, canonical isoform): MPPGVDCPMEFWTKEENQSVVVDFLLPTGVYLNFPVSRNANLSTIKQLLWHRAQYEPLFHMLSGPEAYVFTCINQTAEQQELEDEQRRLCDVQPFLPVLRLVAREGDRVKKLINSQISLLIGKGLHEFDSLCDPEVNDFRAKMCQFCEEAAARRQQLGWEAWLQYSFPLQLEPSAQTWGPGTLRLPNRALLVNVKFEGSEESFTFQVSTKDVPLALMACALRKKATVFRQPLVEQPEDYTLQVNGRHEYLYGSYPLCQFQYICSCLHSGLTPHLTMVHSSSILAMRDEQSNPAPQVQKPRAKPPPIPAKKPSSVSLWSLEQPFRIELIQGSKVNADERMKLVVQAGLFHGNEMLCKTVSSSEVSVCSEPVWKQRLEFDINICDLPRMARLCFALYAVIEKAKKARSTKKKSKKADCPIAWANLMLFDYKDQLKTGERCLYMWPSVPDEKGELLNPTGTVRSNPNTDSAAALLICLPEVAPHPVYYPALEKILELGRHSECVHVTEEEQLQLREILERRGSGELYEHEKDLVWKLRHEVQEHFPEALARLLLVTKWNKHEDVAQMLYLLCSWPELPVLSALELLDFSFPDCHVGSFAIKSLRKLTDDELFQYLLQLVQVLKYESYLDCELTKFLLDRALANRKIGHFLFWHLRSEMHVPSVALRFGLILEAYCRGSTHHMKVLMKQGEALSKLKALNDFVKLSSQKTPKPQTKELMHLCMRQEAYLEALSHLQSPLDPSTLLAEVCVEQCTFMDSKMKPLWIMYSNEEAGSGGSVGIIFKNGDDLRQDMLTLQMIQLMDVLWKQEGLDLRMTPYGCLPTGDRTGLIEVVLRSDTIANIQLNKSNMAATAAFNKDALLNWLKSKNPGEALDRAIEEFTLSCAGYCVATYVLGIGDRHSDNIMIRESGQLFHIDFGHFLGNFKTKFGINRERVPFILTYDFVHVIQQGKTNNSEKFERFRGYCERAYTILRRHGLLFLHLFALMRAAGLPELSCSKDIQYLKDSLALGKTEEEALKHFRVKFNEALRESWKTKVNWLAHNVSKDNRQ
PI3 kinase isoform δ, sequence (P27986 whole entry partner, canonical isoform): as the sequence (P27986 whole entry partner) above
PI3Kα mutation H1047R, sequence (P42336 whole entry H1047R, the tested form may be a part, canonical isoform): as the sequence (P42336 whole entry E545K) above, with K545E, H1047R counted along it
PI3Kα mutation H1047R, sequence (P27986 whole entry partner, the tested form may be a part, canonical isoform): as the sequence (P27986 whole entry partner) above

SMILES: CC(C)(O)C(=O)Nc1cccc(-c2cnc3c(N4CCOCC4)nc(-c4cnc(N)nc4)nc3c2)c1 [Example 48, N-(3-(2-(2-amino-pyrimidin-5-yl)-4-morpholinopyrido[3,2-d]pyrimidin-7-yl)phenyl)-2-hydroxy-2-methylpropanamide]
- IC50 (PC3 cells): 100 to 500 nM
- IC50 (PI3Kα mutation H1047R): < 50 nM
- IC50 (PI3Kα mutation E545K): < 50 nM
- IC50 (PI3Kα (wild-type)): < 50 nM
- IC50 (mTOR kinase): < 50 nM
- IC50 (PI3 kinase isoform δ): < 1000 nM
- IC50 (pAkt(T308)): 100 to 500 nM
- IC50 (PI3 kinase isoform γ): < 500 nM

SMILES: CC(C)(C#N)C(=O)Nc1cccc(-c2cnc3c(N4CCOCC4)nc(-c4cnc(N)nc4)nc3c2)c1 [Example 49, N-(3-(2-(2-amino-pyrimidin-5-yl)-4-morpholinopyrido[3,2-d]pyrimidin-7-yl)phenyl)-2-cyano-2-methylpropanamide]
- IC50 (PC3 cells): < 100 nM
- IC50 (PI3Kα mutation H1047R): < 50 nM
- IC50 (PI3Kα mutation E545K): < 50 nM
- IC50 (PI3Kα (wild-type)): < 50 nM
- IC50 (pS6RP (S235/236)): < 100 nM
- IC50 (mTOR kinase): < 50 nM
- IC50 (pAkt(S473)): < 100 nM
- IC50 (PI3 kinase isoform δ): < 1000 nM
- IC50 (pAkt(T308)): 100 to 500 nM
- IC50 (PI3 kinase isoform γ): < 500 nM

SMILES: C[C@H](O)C(=O)Nc1cccc(-c2cnc3c(N4CCOCC4)nc(-c4cnc(N)nc4)nc3c2)c1 [Example 47, (S)-N-(3-(2-(2-amino-pyrimidin-5-yl)-4-morpholinopyrido[3,2-d]pyrimidin-7-yl)phenyl)-2-hydroxypropanamide]
- IC50 (PC3 cells): 100 to 500 nM
- IC50 (PI3Kα mutation H1047R): < 50 nM
- IC50 (PI3Kα mutation E545K): < 50 nM
- IC50 (PI3Kα (wild-type)): < 50 nM
- IC50 (mTOR kinase): < 50 nM
- IC50 (PI3 kinase isoform δ): < 1000 nM
- IC50 (pAkt(T308)): < 100 nM
- IC50 (PI3 kinase isoform γ): < 500 nM

SMILES: Cn1cc(-c2cnc3c(N4CCOCC4)nc(-c4cnc(N)nc4)nc3c2)cn1 [Example 22, 5-(7-(1-methyl-1H-pyrazol-4-yl)-4-morpholinopyrido[3,2-d]-pyrimidin-2-yl)pyrimidin-2-amine]
- IC50 (PC3 cells): < 100 nM
- IC50 (PI3Kα (wild-type)): < 50 nM
- IC50 (pS6RP (S235/236)): 100 to 500 nM
- IC50 (mTOR kinase): < 50 nM
- IC50 (pAkt(S473)): 501 to 5000 nM
- IC50 (pAkt(T308)): 100 to 500 nM

SMILES: CC(=O)OC(C)OC(=O)N(C(C)=O)c1cccc(-c2cnc3c(N4CCOCC4)nc(-c4cnc(N)nc4)nc3c2)c1 (stereo not drawn) [Example 120, 1-((acetyl(3-(2-(2-amino-pyrimidin-5-yl)-4-morpholinopyrido[3,2-d]-pyrimidin-7-yl)-phenyl)carbamoyl)oxy) ethyl acetate]
- tumor growth inhibition relative to vehicle control group (U87MG tumor cells): more than 70%

SMILES: CS(=O)(=O)Nc1cccc(-c2cnc3c(N4CCOCC4)nc(-c4cnc(N)nc4)nc3c2)c1 [Example 21, N-(3-(2-(2-amino-pyrimidin-5-yl)-4-morpholinopyrido[3,2-d]-pyrimidin-7-yl)phenyl)-methanesulfonamide]
- IC50 (PC3 cells): < 100 nM
- IC50 (PI3Kα mutation H1047R): < 50 nM
- IC50 (PI3Kα mutation E545K): < 50 nM
- IC50 (PI3Kα (wild-type)): < 50 nM
- IC50 (mTOR kinase): < 50 nM
- IC50 (pAkt(S473)): 100 to 500 nM
- IC50 (PI3 kinase isoform β): < 500 nM
- IC50 (pAkt(T308)): 100 to 500 nM
- IC50 (PI3 kinase isoform γ): < 500 nM

SMILES: CS(=O)(=O)c1cccc(-c2ccc3c(N4CCOCC4)nc(-c4cnc(N)nc4)nc3c2)c1 [Example 1, 5-(7-(3-(Methylsulfonyl)phenyl)-4-morpholinoquinazolin-2-yl)pyrimidin-2-amine]
- IC50 (PC3 cells): 501 to 5000 nM
- IC50 (PI3Kα (wild-type)): 50 to 200 nM
- IC50 (pS6RP (S235/236)): 100 to 500 nM
- IC50 (mTOR kinase): 50 to 200 nM
- IC50 (pAkt(S473)): 100 to 500 nM
- IC50 (pAkt(T308)): 501 to 5000 nM

SMILES: Nc1ncc(-c2nc(N3CCOCC3)c3ncc(-c4cccnc4F)cc3n2)cn1 [Example 24, 5-(7-(2-fluoropyridin-3-yl)-4-morpholino-pyrido[3,2-d]pyrimidin-2-yl)pyrimidin-2-amine]
- IC50 (PC3 cells): 100 to 500 nM
- IC50 (PI3Kα (wild-type)): < 50 nM
- IC50 (pS6RP (S235/236)): 100 to 500 nM
- IC50 (mTOR kinase): 50 to 200 nM
- IC50 (pAkt(S473)): 501 to 5000 nM
- IC50 (pAkt(T308)): 100 to 500 nM

SMILES: CC(=O)Nc1cc(-c2cnc3c(N4CCOCC4)nc(-c4cnc(N)nc4)nc3c2)ccc1F [Example 119, N-(5-(2-(2-amino-pyrimidin-5-yl)-4-morpholinopyrido[3,2-d]-pyrimidin-7-yl)-2-fluorophenyl)acetamide]
- IC50 (PC3 cells): < 100 nM
- IC50 (PI3Kα (wild-type)): < 50 nM
- IC50 (pS6RP (S235/236)): < 100 nM
- IC50 (mTOR kinase): < 50 nM
- IC50 (pAkt(S473)): 100 to 500 nM
- IC50 (pAkt(T308)): < 100 nM
